Assay results published in US20020156325A1, “Asymmetric beta-ketoiminate ligand compound, preparation method thereof, and organometal percursor comprising the same” (priority 2001, published 2002).

Test: Thermal gravimetric analysis at atmospheric pressure
Format: physicochemical

temperature at which the metal complex was vaporized or decomposed	residue left after vaporization or decomposition (in words) (at 290° C.)	solid residue left after vaporization or decomposition	Substance
290 °C	little residue	–	Ti [CH3COCHCNH (CH2CH (CH3) OH) CH2CH3]2 [Example 4]
about 330 °C	–	7%	Ti[CH3COCHCNH(CH2CH2OH)CH2CH3]2 [Example 5]
about 380 °C	–	about 12%	Ti[CH3COCHCN(CH2CH2OH)2CH2CH3]2 [Example 6]
